# Test results published in PubChem BioAssay (NCI).
# “And” between values parts separate entries of the source, which are not always exact repeats. Equal entries are not always repeated.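 These data come from cells grown in 96-well plates and exposed to compound for 48 hours at five concentrations. GI50: concentration for 50% inhibition of growth. TGI is the concentration that stops growth completely.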
# Assays:
# Assay in all cases: inhibition of tumour cell growth, NCI panel, 48 h
# MALME-3M melanoma = system: MALME-3M melanoma
# EKVX NSCLC = system: EKVX NSCLC
# HCC-2998 colon = system: HCC-2998 colon
# CCRF-CEM leukemia = system: CCRF-CEM leukemia
# ACHN renal = system: ACHN renal
# HCT-15 colon = system: HCT-15 colon
# SF-539 CNS = system: SF-539 CNS
# OVCAR-4 ovarian = system: OVCAR-4 ovarian
# K-562 leukemia = system: K-562 leukemia
# SW-620 colon = system: SW-620 colon
Structure (SMILES),TGI (MALME-3M melanoma),TGI (EKVX NSCLC),TGI (HCC-2998 colon),TGI (CCRF-CEM leukemia),TGI (ACHN renal),TGI (HCT-15 colon),TGI (SF-539 CNS),TGI (OVCAR-4 ovarian),TGI (K-562 leukemia),TGI (SW-620 colon),GI50 (MALME-3M melanoma),GI50 (EKVX NSCLC),GI50 (HCC-2998 colon),GI50 (CCRF-CEM leukemia),GI50 (ACHN renal),GI50 (HCT-15 colon),GI50 (SF-539 CNS),GI50 (OVCAR-4 ovarian),GI50 (K-562 leukemia),GI50 (SW-620 colon)
Nn1c(-c2ccccc2)nc2ccc(Br)cc2c1=O,> 100 µM,> 100 µM,> 100 µM,76.4 µM,> 100 µM,> 100 µM,> 100 µM,86.7 µM,> 100 µM,> 100 µM,–,–,–,–,–,–,–,–,–,–
N#Cc1c(-c2nc3ccccc3s2)c(=O)oc2cc(O)ccc12,95.9 µM,> 100 µM,> 100 µM,> 100 µM,> 100 µM,> 100 µM,> 100 µM,> 100 µM,> 100 µM,> 100 µM,–,–,–,–,–,–,–,–,–,–
CC1=C(C)C(=O)c2c(cc3ccc4ccccc4n23)C1=O,> 100 µM,> 100 µM,> 100 µM,> 100 µM,> 100 µM,> 100 µM,> 100 µM,> 100 µM,> 100 µM,> 100 µM,–,–,–,–,–,–,–,–,–,–
CCN(CC)CCOc1nc2ccc(OC)cc2c2c1-c1ccc(OC)cc1C2=O,3.22 µM,2.81 µM,6.68 µM,3.26 µM,1.79 µM,2.27 µM,2.95 µM,3.17 µM,2.54 µM,1.61 µM,1680 nM,0.97 µM,1310 nM,299 nM,476 nM,584 nM,1240 nM,1020 nM,502 nM,253 nM
COc1nc(N(C)O)nc(N(C)O)n1,24 µM,> 100 µM,> 100 µM,> 100 µM,> 100 µM,> 100 µM,9.69 µM,> 100 µM,> 100 µM,> 100 µM,2220 nM,1.56 µM,2250 nM,624 nM,625 nM,519 nM,1260 nM,2330 nM,2940 nM,2570 nM
CNc1ccc2nc3ccc(=[N+](C)C)cc-3sc2c1,2.36 µM and 1.97 µM,23.4 µM and 14.5 µM,15.9 µM and 18.6 µM,17 µM and > 100 µM,10.6 µM and 4.23 µM,18.2 µM and 16.5 µM,2.65 µM and 1.73 µM,1.74 µM and 1.9 µM,14.1 µM and 47.4 µM,12.5 µM and 10.5 µM,335 nM and 482 nM,4.63 µM and 0.518 µM,2840 nM and 1120 nM,432 nM and 489 nM,815 nM and 1020 nM,1570 nM and 424 nM,383 nM and 278 nM,398 nM and 299 nM,513 nM and 756 nM,1630 nM and 424 nM
N#Cc1c(Sc2ccccc2N)cccc1Sc1ccccc1N,–,–,–,–,–,–,–,–,–,–,25300 nM,35.6 µM,67700 nM,20900 nM,35200 nM,55600 nM,69700 nM,42100 nM,22900 nM,79800 nM
C=C1CC2(OC1=O)C(=O)N(CCCCCCCN1C(=O)C3(CC(=C)C(=O)O3)c3ccccc31)c1ccccc12 (stereo not given),2.09 µM,19.3 µM,13.7 µM,6.42 µM,3.07 µM,4.61 µM,4.27 µM,7.6 µM,6.06 µM,2.21 µM,955 nM,9.35 µM,6440 nM,896 nM,1130 nM,1300 nM,1260 nM,2010 nM,953 nM,938 nM
Cc1ccc(CNc2c3ccccc3nc3ccccc23)cc1,3.18 µM,8.04 µM,3.74 µM,12.6 µM,3.95 µM,4.42 µM,3.01 µM,5.36 µM,13.1 µM,5.32 µM,1660 nM,2.06 µM,1720 nM,2480 nM,1630 nM,1800 nM,1570 nM,1540 nM,1970 nM,1620 nM
CNC(=O)c1cc(OC2CCC(NC(=O)Nc3ccc(Cl)c(C(F)(F)F)c3)CC2)ccn1 (stereo not given),34.3 µM,58.7 µM,19.2 µM,> 100 µM,31.5 µM,23.6 µM,29.6 µM,49.6 µM,17.3 µM,31.2 µM,9640 nM,7.46 µM,7000 nM,4410 nM,7760 nM,6170 nM,12000 nM,4530 nM,3660 nM,11500 nM
COC(=O)N[C@H]1CCc2c(Br)c(OC)c(OC)c(OC)c2-c2ccc(SC)c(=O)cc21,30.5 µM,> 85.4 µM,11.5 µM,24.9 µM,25.4 µM,11.6 µM,< 0.01 µM,> 57 µM,15.9 µM,19.7 µM,14.8 nM,< 0.01 µM,< 10 nM,< 10 nM,< 10 nM,< 10 nM,< 10 nM,152 nM,< 10 nM,< 10 nM
O=[N+]([O-])C1C(c2ccccc2)C12c1ccccc1-c1ccccc12 (stereo not given),37.8 µM,> 100 µM,6.43 µM,4.22 µM,19.1 µM,30.4 µM,9 µM,> 100 µM,> 65.9 µM,8.2 µM,15000 nM,3.22 µM,1490 nM,318 nM,1470 nM,546 nM,1310 nM,3560 nM,452 nM,424 nM
COc1cc(O)c([C@@H]2C[C@H](CCc3ccc(O)cc3)O[C@H](c3ccc(O)cc3)C2)c(O)c1C(=O)/C=C/c1ccc(O)cc1,> 30.8 µM,16.7 µM,1.73 µM,7.36 µM,6.01 µM,6.88 µM,4.98 µM,29.5 µM,6.24 µM,6.12 µM,3390 nM,4.1 µM,558 nM,2320 nM,2430 nM,2450 nM,2230 nM,3800 nM,2320 nM,2240 nM
COc1cccc(C2CC(C)(N3CCCC3)Oc3cc4c(cc32)OCO4)c1O (stereo not given),> 100 µM,> 100 µM,48.2 µM,> 83.3 µM,> 100 µM,70 µM,46.1 µM,> 100 µM,41.9 µM,> 100 µM,–,–,–,–,–,–,–,–,–,–
